Experimental data from patent US5849802A, “Fungicidal spirocyclic amines” (American Cyanamid Company, priority 1996, dated 1998).

Legend:
Septoria nodorum = experiment: In vivo fungicidal activity: Wheat Septoria nodorum Blotch (WSN); conditions: 200 ppm, sprayed before inoculation
Experimental: Test compounds are dissolved in acetone and diluted with deionized water (95 parts water to 5 parts acetone) containing 0.05% TWEEN 20®, a polyoxyethylene sorbitan monolaurate surfactant manufactured by Atlas Chemical Industries, to give a concentration of 200 ppm.
The plants are sprayed with the test solutions, dried and inoculated with fungi later the same day. When disease symptom development is optimal, the plants are rated for disease control according to the rating scale shown below. Each test contains inoculated treated plants, inoculated untreated plants and a inoculated plants treated with reference fungicides.

Rhizoctonia solani = experiment: In vitro fungicidal activity: growth inhibition (RHIZ SO); type: cell-based; conditions: 25 ppm, 3-7 days at 22° C., nutrient broth; note: ranges in brackets are in %
Experimental: (§1) Test compounds are dissolved in acetone then diluted with deionize water (9 parts water: 1 part acetone), and dispersed into cell well plates containing a suspension of ground fungal mycelium in a nutrient broth resulting in a final concentration of 25 ppm of the test compound. Assay plates are incubated for 3-7 days at 22° C. Growth inhibition is measured visually and is rated using the following scale: […]

Venturia inaequalis = experiment: In vivo fungicidal activity: Apple Scab (AS); conditions: 200 ppm, sprayed before inoculation; note: ranges in brackets are in %
[1] = tested on: Pseudocercosporella herpotrichoides; experiment: In vitro fungicidal activity: growth inhibition (PSDC HE); type: cell-based; conditions: 25 ppm, 3-7 days at 22° C., nutrient broth; note: ranges in brackets are in %
Experimental: as §1

[2] = tested on: Erysiphe graminis f. sp. tritici; experiment: In vivo fungicidal activity: Wheat Powdery Mildew (WPM); conditions: 200 ppm, sprayed before inoculation; note: ranges in brackets are in %
Botrytis cinerea = experiment: In vivo fungicidal activity: Pepper Botrytis (PB); conditions: 200 ppm, sprayed before inoculation; note: ranges in brackets are in %
Cercospora beticola = experiment: In vivo fungicidal activity: Sugar Beet Cercospora (SBC); conditions: 200 ppm, sprayed before inoculation; note: ranges in brackets are in %
[3] = tested on: Fusarium oxysporium f. sp. cucumerinum; experiment: In vitro fungicidal activity: growth inhibition (FUS OXC); type: cell-based; conditions: 25 ppm, 3-7 days at 22° C., nutrient broth; note: ranges in brackets are in %
Experimental: as §1

Plasmopara viticola = experiment: In vivo fungicidal activity: Grape Downy Mildew (GDM); conditions: 200 ppm, sprayed before inoculation; note: ranges in brackets are in %
Pythium ultimum = experiment: In vitro fungicidal activity: growth inhibition (PYTH UL); type: cell-based; conditions: 25 ppm, 3-7 days at 22° C., nutrient broth; note: ranges in brackets are in %
Experimental: as §1

[4] = tested on: Pyricularia grisea f. sp. oryzae; type: in vivo; conditions: 200 ppm, sprayed before inoculation, Rice Blast
Alternaria solani = experiment: In vivo fungicidal activity: Tomato Early Blight (TEB); conditions: 200 ppm, sprayed before inoculation; note: ranges in brackets are in %

SMILES | disease control rating, WSN (Septoria nodorum) | growth inhibition rating, RHIZ SO (Rhizoctonia solani) | disease control rating, AS (Venturia inaequalis) | growth inhibition rating, PSDC HE [1] | disease control rating, WPM [2] | disease control rating, PB (Botrytis cinerea) | disease control rating, SBC (Cercospora beticola) | growth inhibition rating, FUS OXC [3] | disease control rating, GDM (Plasmopara viticola) | growth inhibition rating, PYTH UL (Pythium ultimum) | disease control rating, RB [4] | disease control rating, TEB (Alternaria solani)
CC1CCN(C2CCC3(CCC(C(C)(C)C)CC3)C2)CC1 (stereo not drawn) [Example 1] | 7 (90-95) | 9 (100) | 6 (75-89) | 7 (90-99) | 7 (90-95) | 8 (96-99) | 6 (75-89) | 0 (0) | 9 (100) | 7 (90-99) | 0 (0) | 0 (0)
CCCCC(CC)NC1CCC2(CCC(C(C)(C)C)CC2)C1 (stereo not drawn) [Example 2] | 0 (0) | 7 (90-99) | 8 (96-99) | 9 (100) | 8 (96-99) | 9 (100) | 4 (45-59) | 0 (0) | 8 (96-99) | 9 (100) | 0 (0) | 0 (0)
CC(C)(C)C1CCC2(CCC(NC3CCCCC3)C2)CC1 (stereo not drawn) [Example 3] | 8 (96-99) | 0 (0) | 8 (96-99) | 0 (0) | 8 (96-99) | 9 (100) | 6 (75-89) | 0 (0) | 5 (60-74) | 1 (1-29) | 0 (0) | 8 (96-99)
C[C@@H]1CN(C2CCC3(CCC(C(C)(C)C)CC3)C2)C[C@H](C)O1 (stereo partly drawn) [Example 4] | 7 (90-95) | 0 (0) | 0 (0) | 0 (0) | 9 (100) | 9 (100) | 7 (90-95) | 0 (0) | 0 (0) | 0 (0) | 0 (0) | 0 (0)
CC1CC(C)CN(C2CCC3(CCC(C(C)(C)C)CC3)C2)C1 (stereo not drawn) [Example 5] | 4 (45-59) | 0 (0) | 6 (75-89) | 0 (0) | 8 (96-99) | 9 (100) | 7 (90-95) | 0 (0) | 5 (60-74) | 0 (0) | 0 (0) | 0 (0)
CC1CCCC(NC2CCC3(CCC(C(C)(C)C)CC3)C2)C1 (stereo not drawn) [Example 6] | 7 (90-95) | 9 (100) | 6 (75-89) | 7 (90-99) | 3 (30-44) | 4 (45-59) | 4 (45-59) | 0 (0) | 5 (60-74) | 7 (90-99) | 7 (90-95) | 7 (90-95)
CC1CCC(NC2CCC3(CCC(C(C)(C)C)CC3)C2)CC1 (stereo not drawn) [Example 7] | 7 (90-95) | 9 (100) | 4 (45-59) | 7 (90-99) | 7 (90-95) | 7 (90-95) | 8 (96-99) | 0 (0) | 3 (30-44) | 7 (90-99) | 0 (0) | 4 (45-59)
CC(C)CNC1CCC2(CCC(C(C)(C)C)CC2)C1 (stereo not drawn) [Example 8] | 4 (45-59) | 9 (100) | 8 (96-99) | 7 (90-99) | 5 (60-74) | 6 (75-89) | 6 (75-89) | 0 (0) | 0 (0) | 7 (90-99) | 0 (0) | 0 (0)
CN(C1CCCCC1)C1CCC2(CCC(C(C)(C)C)CC2)C1 (stereo not drawn) [Example 9] | 6 (75-89) | 9 (100) | 8 (96-99) | 7 (90-99) | 7 (90-95) | 8 (96-99) | 4 (45-59) | 0 (0) | 2 (15-29) | 7 (90-99) | 0 (0) | 0 (0)
CC(C)(C)C1CCC2(CCC(NC3CCCC3)C2)CC1 (stereo not drawn) [Example 10] | 7 (90-95) | 9 (100) | 8 (96-99) | 9 (100) | 6 (75-89) | 6 (75-89) | 6 (75-89) | 0 (0) | 5 (60-74) | 9 (100) | 0 (0) | 2 (15-29)
CC(C)(C)C1CCC2(CCC(NC3CCCCCC3)C2)CC1 (stereo not drawn) [Example 11] | 6 (75-89) | 9 (100) | 7 (90-95) | 9 (100) | 6 (75-89) | 8 (96-99) | 5 (60-74) | 0 (0) | 6 (75-89) | 0 (0) | 0 (0) | 5 (60-74)
CC(C)(C)C1CCC2(CCC(NCc3ccc(Cl)cc3)C2)CC1 (stereo not drawn) [Example 12] | 0 (0) | 9 (100) | 7 (90-95) | 9 (100) | 5 (60-74) | 7 (90-95) | 0 (0) | 0 (0) | 0 (0) | 0 (0) | 0 (0) | 0 (0)
